Our source for the IC50 values is US20250215029A1 (Recludix Pharma, Inc., priority 2022, published 2025).

One experiment addresses T1, pY641-STAT6 in PBMC (Homo sapiens, UniProt P42226).
T1 construct: Cryopreserved Peripheral Blood Mononuclear Cells (PBMC) are from AllCells; host or cells: cryopreserved PBMC
T1 sequence (P42226 1-847): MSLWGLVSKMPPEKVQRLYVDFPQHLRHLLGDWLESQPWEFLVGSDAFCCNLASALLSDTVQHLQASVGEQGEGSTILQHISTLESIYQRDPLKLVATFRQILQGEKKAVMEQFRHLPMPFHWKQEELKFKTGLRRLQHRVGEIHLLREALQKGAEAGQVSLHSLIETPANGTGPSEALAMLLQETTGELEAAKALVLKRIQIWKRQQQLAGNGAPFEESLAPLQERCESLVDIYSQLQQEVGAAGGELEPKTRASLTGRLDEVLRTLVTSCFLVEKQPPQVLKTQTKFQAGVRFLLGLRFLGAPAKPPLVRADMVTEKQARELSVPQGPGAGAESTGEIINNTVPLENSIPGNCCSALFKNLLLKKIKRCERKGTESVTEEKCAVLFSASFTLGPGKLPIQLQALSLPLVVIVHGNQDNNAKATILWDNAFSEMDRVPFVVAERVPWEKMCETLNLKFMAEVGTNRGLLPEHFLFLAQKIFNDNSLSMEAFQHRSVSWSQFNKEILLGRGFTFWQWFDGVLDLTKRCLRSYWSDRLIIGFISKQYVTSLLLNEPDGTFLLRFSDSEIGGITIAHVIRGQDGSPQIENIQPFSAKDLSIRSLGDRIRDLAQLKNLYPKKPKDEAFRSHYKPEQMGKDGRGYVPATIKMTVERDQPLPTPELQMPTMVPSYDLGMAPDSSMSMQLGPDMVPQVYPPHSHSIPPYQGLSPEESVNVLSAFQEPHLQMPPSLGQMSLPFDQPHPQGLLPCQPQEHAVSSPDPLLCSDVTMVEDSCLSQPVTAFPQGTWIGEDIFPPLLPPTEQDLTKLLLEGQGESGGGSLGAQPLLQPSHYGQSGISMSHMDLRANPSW
In words: MSD-pSTAT-PBMC Assay (pSTAT6, IL-4 stimulated). The class given is cell-based. To be noted: PBMC, compound 3 hrs, then 1 ng/mL IL-4 for 10 min; Table 115; read-out: STAT6. The method in brief:
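Inhibition of cytokine-induced STAT phosphorylation was measured in recovered human PBMC after 3 hrs compound exposure and a 10 min IL-4 (1 ng/mL) or IL-6 (10 ng/mL) challenge. MSD detection of pY641-STAT6 or pY705-STAT3 yielded IC50 values.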
On to `CCCOC(=O)[C@H](C)NP(=O)(Oc1ccccc1)[C@@H](F)c1ccc2sc(C(=O)N[C@H]3CCCC[C@H]4CC[C@@H](C(=O)N5C[C@H](c6cccnc6)[C@@H](C#N)C56CC6)N4C3=O)cc2c1` (stereo partly shown) [Compound 364], for which the IC50 was < 100 nM.
The same measure, in the same setting: next, `CCCOC(=O)[C@H](C)NP(=O)(Oc1ccccc1)[C@@H](F)c1ccc2sc(C(=O)N[C@H]3CCCC[C@H]4CC[C@@H](C(=O)N5C[C@H](c6cccnc6)[C@@H](C#N)C56CC6)N4C3=O)cc2c1` (stereo partly shown) [Compound 365]: < 100 nM.

Still in this experiment, the particulars now being: STAT6, PBMC, compound 3 hrs, then 1 ng/mL IL-4 for 10 min; Table 115.
Take `C[C@H](NP(=O)(Oc1ccccc1)[C@@H](F)c1ccc2sc(C(=O)N[C@H]3CCCC[C@H]4CC[C@@H](C(=O)N5C[C@@H](c6cccnc6)CC56CC6)N4C3=O)cc2c1)C(=O)OCC1CCOCC1` (stereo partly drawn) [Compound 360, (tetrahydro-2H-pyran-4-yl)methyl (((R)-fluoro(2-(((3S,6S,10aS)-5-oxo-3-((R)-6-(pyridin-3-yl)-4-azaspiro[2.4]heptane-4-carbonyl)decahydropyrrolo[1,2-a]azocin-6-yl)carbamoyl)benzo [b]thiophen-5-yl)methyl)(phenoxy)phosphoryl)-L-alaninate]: the IC50 was < 100 nM.
Same read-out and setting: next, `COCCOC(=O)[C@H](C)NP(=O)(Oc1ccccc1)[C@@H](F)c1ccc2sc(C(=O)N[C@H]3CCC[C@H]4CC[C@@H](C(=O)N5C[C@@H](c6ccccc6)[C@H](C#N)C56CC6)N4C3=O)cc2c1` (stereo partly drawn) [Compound 361, 2-methoxyethyl (((R)-(2-(((3S,6S,9aS)-3-((6R,7S)-7-cyano-6-phenyl-4-azaspiro[2.4]heptane-4-carbonyl)-5-oxooctahydro-1H-pyrrolo[1,2-a]azepin-6-yl)carbamoyl)benzo [b]thiophen-5-yl)fluoromethyl) (phenoxy)phosphoryl)-L-alaninate]: < 100 nM; `C[C@H](NP(=O)(Oc1ccccc1)[C@@H](F)c1ccc2sc(C(=O)N[C@H]3CCC[C@H]4CC[C@@H](C(=O)N5C[C@@H](c6cccnc6)CC56CC6)N4C3=O)cc2c1)C(=O)OCc1cccnn1` (stereo partly drawn) [Compound 366, pyridazin-3-ylmethyl (((R)-fluoro(2-(((3S,6S,9aS)-5-oxo-3-((R)-6-(pyridin-3-yl)-4-azaspiro[2.4]heptane-4-carbonyl)octahydro-1H-pyrrolo[1,2-a]azepin-6-yl)carbamoyl)benzo [b]thiophen-5-yl)methyl)(phenoxy)phosphoryl)-L-alaninate]: 100 to 1000 nM.
On the same count and under the same terms, next, `C[C@H](NP(=O)(Oc1ccccc1)[C@@H](F)c1ccc2sc(C(=O)N[C@H]3CCCC[C@H]4CC[C@@H](C(=O)N5C[C@@H](c6cccnc6)CC56CC6)N4C3=O)cc2c1)C(=O)OCC1COC1` (stereo partly drawn) [Compound 374, oxetan-3-ylmethyl (((R)-fluoro(2-(((3S,6S,10aS)-5-oxo-3-((R)-6-(pyridin-3-yl)-4-azaspiro[2.4]heptane-4-carbonyl)decahydropyrrolo[1,2-a]azocin-6-yl)carbamoyl)benzo [b]thiophen-5-yl)methyl)(phenoxy)phosphoryl)-L-alaninate]: < 100 nM; `COCCOC(=O)[C@H](C)NP(=O)(Oc1ccccc1)[C@@H](F)c1ccc2sc(C(=O)N[C@H]3CCCC[C@H]4CC[C@@H](C(=O)N5C[C@H](c6ccccc6)[C@@H](C#N)C56CC6)N4C3=O)cc2c1` (stereo partly drawn) [Compound 375, 2-methoxyethyl (((R)-(2-(((3S,6S,10aS)-3-((6S,7R)-7-cyano-6-phenyl-4-azaspiro[2.4]heptane-4-carbonyl)-5-oxodecahydropyrrolo [1,2-a]azocin-6-yl)carbamoyl)benzo [b]thiophen-5-yl)fluoromethyl) (phenoxy)phosphoryl)-L-alaninate]: < 100 nM.
On the same count and under the same terms, the result for `COCCOC(=O)[C@H](COC)NP(=O)(Oc1ccccc1)[C@@H](F)c1ccc2sc(C(=O)N[C@H]3CCCC[C@H]4CC[C@@H](C(=O)N5C[C@H](c6ccccc6)[C@@H](C#N)C56CC6)N4C3=O)cc2c1` (stereo partly drawn) [Compound 376, 2-methoxyethyl N-(((R)-(2-(((3S,6S,10aS)-3-((6S,7R)-7-cyano-6-phenyl-4-azaspiro[2.4]heptane-4-carbonyl)-5-oxodecahydropyrrolo [1,2-a]azocin-6-yl)carbamoyl)benzo [b]thiophen-5-yl)fluoromethyl) (phenoxy)phosphoryl)-O-methyl-L-serinate] reads < 100 nM; that for `COCCOC(=O)[C@H](C)NP(=O)(Oc1ccccc1)[C@@H](F)c1ccc2sc(C(=O)N[C@H]3CCCC[C@H]4CC[C@@H](C(=O)N5C[C@@H](c6cccnc6)CC56CC6)N4C3=O)cc2c1` (stereo partly drawn) [Compound 378, 2-methoxyethyl (((R)-fluoro(2-(((3S,6S,10aS)-5-oxo-3-((R)-6-(pyridin-3-yl)-4-azaspiro[2.4]heptane-4-carbonyl)decahydropyrrolo[1,2-a]azocin-6-yl)carbamoyl)benzo [b]thiophen-5-yl)methyl)(phenoxy)phosphoryl)-L-alaninate], < 100 nM.
For `CCCOC(=O)[C@H](C)NP(=O)(Oc1ccccc1)[C@@H](F)c1ccc2sc(C(=O)N[C@H]3CCC[C@H]4CC[C@@H](C(=O)N5C[C@@H](c6cccnc6)CC56CC6)N4C3=O)cc2c1` (stereo partly drawn) [Compound 379, propyl (((R)-fluoro(2-(((3S,6S,9aS)-5-oxo-3-((R)-6-(pyridin-3-yl)-4-azaspiro[2.4]heptane-4-carbonyl)octahydro-1H-pyrrolo[1,2-a]azepin-6-yl)carbamoyl)benzo [b]thiophen-5-yl)methyl)(phenoxy)phosphoryl)-L-alaninate], the IC50 was < 100 nM.
The same measure, in the same setting: next, `CCCOC(=O)[C@H](COC)NP(=O)(Oc1ccccc1)[C@@H](F)c1ccc2sc(C(=O)N[C@H]3CCCC[C@H]4CC[C@@H](C(=O)N5C[C@@H](c6cccnc6)CC56CC6)N4C3=O)cc2c1` (stereo partly drawn) [Compound 384, propyl N-(((R)-fluoro(2-(((3S,6S,10aS)-5-oxo-3-((R)-6-(pyridin-3-yl)-4-azaspiro[2.4]heptane-4-carbonyl)decahydropyrrolo[1,2-a]azocin-6-yl)carbamoyl)benzo [b]thiophen-5-yl)methyl)(phenoxy)phosphoryl)-O-methyl-L-serinate]: < 100 nM.
Still for that read-out and setting: next, `C[C@H](NP(=O)(Oc1ccccc1)[C@@H](F)c1ccc2sc(C(=O)N[C@H]3CCCC[C@H]4CC[C@@H](C(=O)N5C[C@@H](c6cccnc6)CC56CC6)N4C3=O)cc2c1)C(=O)OCc1ccccn1` (stereo partly drawn) [Compound 385, pyridin-2-ylmethyl (((R)-fluoro(2-(((3S,6S,10aS)-5-oxo-3-((R)-6-(pyridin-3-yl)-4-azaspiro[2.4]heptane-4-carbonyl)decahydropyrrolo[1,2-a]azocin-6-yl)carbamoyl)benzo [b]thiophen-5-yl)methyl)(phenoxy)phosphoryl)-L-alaninate]: < 100 nM; `C[C@H](NP(=O)(Oc1ccccc1)[C@@H](F)c1ccc2sc(C(=O)N[C@H]3CCCC[C@H]4CC[C@@H](C(=O)N5C[C@@H](c6cccnc6)CC56CC6)N4C3=O)cc2c1)C(=O)OCC1(C)COC1` (stereo partly drawn) [Compound 386, (3-methyloxetan-3-yl)methyl (((R)-fluoro(2-(((3S,6S,10aS)-5-oxo-3-((R)-6-(pyridin-3-yl)-4-azaspiro[2.4]heptane-4-carbonyl)decahydropyrrolo[1,2-a]azocin-6-yl)carbamoyl)benzo [b]thiophen-5-yl)methyl)(phenoxy)phosphoryl)-L-alaninate]: < 100 nM.
